Assay results from patent publication US6355799B1, “Substituted benzene compounds, process for their preparation, and herbicidal and defoliant compositions containing them” (ISK Americas Incorporated, priority 1997, dated 2002).

Assays:
Format in all cases: in vivo
[1] = tested on: redroot pigweed (Amaranthus retroflexus, AMARE); assay: Pre-emerge test, greenhouse herbicide activity screening; details: rated 14 days after application, 0 = no damage, 100 = complete death
How it was run: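 Sandy loam pots; pre-emerge: sown 1 d pre-spray, surface-watered after, then bottom-watered. Post-emerge: sown 8–21 d before, 2–3 leaf stage, + 0.25% v/v NIS, bottom-watered. Acetone, 187 l/ha track spray, 15–1000 g ai/ha. 0–100 injury score, day 14.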

[2] = tested on: barnyardgrass (Echinochloa crus-galli, ECHCG); assay: as above; details: rated 14 days after application, 0 = no damage, 100 = complete death
How it was run: (§1)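 Fourteen days after spraying, crop and weed injury was graded visually from 0, no effect, to 100, every plant dead. Test substances were dissolved in acetone and applied at 15–1000 g ai/ha with a flat-fan nozzle. Application was either pre-emergence, one day after sowing, or post-emergence at the 2–3 leaf stage.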

[3] = tested on: green foxtail (Setaria viridis, SETVI); assay: as above; details: rated 14 days after application, 0 = no damage, 100 = complete death
How it was run: as §1

[4] = tested on: ivyleaf morningglory (Ipomoea hederacea, IPOHE); assay: as above; details: rated 14 days after application, 0 = no damage, 100 = complete death
How it was run: as §1

[5] = tested on: johnsongrass (Sorghum halepense, SORHA); assay: as above; details: rated 14 days after application, 0 = no damage, 100 = complete death
How it was run: as §1

[6] = tested on: lambsquarters (Chenopodium album, CHEAL); assay: as above; details: rated 14 days after application, 0 = no damage, 100 = complete death
How it was run: as §1

[7] = tested on: large crabgrass (Digitaria sanguinalis, DIGSA); assay: as above; details: rated 14 days after application, 0 = no damage, 100 = complete death
How it was run: as §1

[8] = tested on: sicklepod (Cassia obtusifolia, CASOB); assay: as above; details: rated 14 days after application, 0 = no damage, 100 = complete death
How it was run: as §1

[9] = tested on: velvetleaf (Abutilon theophrasti, ABUTH); assay: as above; details: rated 14 days after application, 0 = no damage, 100 = complete death
How it was run: as §1

[10] = tested on: field corn (Zea mays L., var. Dekalb 535, CORN); assay: Pre-emerge test, crop safety; details: rated 14 days after application, 0 = no damage, 100 = complete death
How it was run: (§2)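 Rating: 0–100 visual injury, 14 DAA. Application: acetone, 187 l/ha, 15–1000 g ai/ha, flat-fan track sprayer with nozzle 40–45 cm above soil or canopy. Post-emerge runs used 0.25% v/v surfactant on 2–3 leaf plants.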

[11] = tested on: upland rice (Oryza sp., var. Tebonnet, RICE); assay: Pre-emerge test, crop safety; details: rated 14 days after application, 0 = no damage, 100 = complete death
How it was run: as §2

[12] = tested on: barnyardgrass (Echinochloa crus-galli, ECHCG); assay: Post-emerge test, greenhouse herbicide activity screening; details: post-emerge, 14 days after application, rating scale 0-100
How it was run: (§3)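 Compounds in acetone were track-sprayed at 15-1000 g ai/ha (187 l/ha) on sandy loam pots: pre-emerge one day after seeding, post-emerge at 2-3 leaf stage with 0.25% v/v non-ionic surfactant. Phytotoxicity was rated 14 days later on a 0 (no damage) to 100 (complete death) scale.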

[13] = tested on: green foxtail (Setaria viridis, SETVI); assay: as above; details: post-emerge, 14 days after application, rating scale 0-100
How it was run: as §3

[14] = tested on: ivyleaf morningglory (Ipomoea hederacea, IPOHE); assay: as above; details: post-emerge, 14 days after application, rating scale 0-100
How it was run: as §3

[15] = tested on: johnsongrass (Sorghum halepense, SORHA); assay: as above; details: post-emerge, 14 days after application, rating scale 0-100
How it was run: as §3

[16] = tested on: lambsquarters (Chenopodium album, CHEAL); assay: as above; details: post-emerge, 14 days after application, rating scale 0-100
How it was run: as §3

[17] = tested on: large crabgrass (Digitaria sanguinalis, DIGSA); assay: as above; details: post-emerge, 14 days after application, rating scale 0-100
How it was run: as §3

[18] = tested on: redroot pigweed (Amaranthus retroflexus, AMARE); assay: as above; details: post-emerge, 14 days after application, rating scale 0-100
How it was run: as §3

[19] = tested on: sicklepod (Cassia obtusifolia, CASOB); assay: as above; details: post-emerge, 14 days after application, rating scale 0-100
How it was run: as §3

[20] = tested on: velvetleaf (Abutilon theophrasti, ABUTH); assay: as above; details: post-emerge, 14 days after application, rating scale 0-100
How it was run: as §3

[21] = tested on: field corn (Zea mays L., var. Dekalb 535, CORN); assay: Post-emerge test, crop safety; details: post-emerge, 14 days after application, rating scale 0-100
How it was run: as §1

[22] = tested on: upland rice (Oryza sp., var. Tebonnet, RICE); assay: Post-emerge test, crop safety; details: post-emerge, 14 days after application, rating scale 0-100
How it was run: as §1

## COc1c(Cl)cc(F)c(-n2c(=O)cc(C(F)(F)F)n(C)c2=O)c1NC(=O)C=Cc1ccc(Cl)cc1 [2-84]
[1]; 63 g ai/ha
  Pre-emerge Herbicidal Activity, phytotoxicity rating (0-100), AMARE: 80
[1]; 250 g ai/ha
  Pre-emerge Herbicidal Activity, phytotoxicity rating (0-100), AMARE: 100
[2]; 63 g ai/ha
  Pre-emerge Herbicidal Activity, phytotoxicity rating (0-100), ECHCG: 0
[2]; 250 g ai/ha
  Pre-emerge Herbicidal Activity, phytotoxicity rating (0-100), ECHCG: 0
[3]; 63 g ai/ha
  Pre-emerge Herbicidal Activity, phytotoxicity rating (0-100), SETVI: 0
[3]; 250 g ai/ha
  Pre-emerge Herbicidal Activity, phytotoxicity rating (0-100), SETVI: 50
[4]; 63 g ai/ha
  Pre-emerge Herbicidal Activity, phytotoxicity rating (0-100), IPOHE: 0
[4]; 250 g ai/ha
  Pre-emerge Herbicidal Activity, phytotoxicity rating (0-100), IPOHE: 0
[5]; 63 g ai/ha
  Pre-emerge Herbicidal Activity, phytotoxicity rating (0-100), SORHA: 0
[5]; 250 g ai/ha
  Pre-emerge Herbicidal Activity, phytotoxicity rating (0-100), SORHA: 0
[6]; 63 g ai/ha
  Pre-emerge Herbicidal Activity, phytotoxicity rating (0-100), CHEAL: 40
[6]; 250 g ai/ha
  Pre-emerge Herbicidal Activity, phytotoxicity rating (0-100), CHEAL: 100
[7]; 63 g ai/ha
  Pre-emerge Herbicidal Activity, phytotoxicity rating (0-100), DIGSA: 00
[7]; 250 g ai/ha
  Pre-emerge Herbicidal Activity, phytotoxicity rating (0-100), DIGSA: 0
[8]; 63 g ai/ha
  Pre-emerge Herbicidal Activity, phytotoxicity rating (0-100), CASOB: 0
[8]; 250 g ai/ha
  Pre-emerge Herbicidal Activity, phytotoxicity rating (0-100), CASOB: 0
[9]; 63 g ai/ha
  Pre-emerge Herbicidal Activity, phytotoxicity rating (0-100), ABUTH: 0
[9]; 250 g ai/ha
  Pre-emerge Herbicidal Activity, phytotoxicity rating (0-100), ABUTH: 80
[10]; 63 g ai/ha
  Pre-emerge phytotoxicity rating (0-100), crop damage, CORN: 0
[10]; 250 g ai/ha
  Pre-emerge phytotoxicity rating (0-100), crop damage, CORN: 0
[11]; 63 g ai/ha
  Pre-emerge phytotoxicity rating (0-100), crop damage, RICE: 0
[11]; 250 g ai/ha
  Pre-emerge phytotoxicity rating (0-100), crop damage, RICE: 0
[12]; 63 g ai/ha
  phytotoxicity rating ECHCG: 0
[12]; 250 g ai/ha
  phytotoxicity rating ECHCG: 0
[13]; 63 g ai/ha
  phytotoxicity rating SETVI: 30
[13]; 250 g ai/ha
  phytotoxicity rating SETVI: 0
[14]; 63 g ai/ha
  phytotoxicity rating IPOHE: 30
[14]; 250 g ai/ha
  phytotoxicity rating IPOHE: 70
[15]; 63 g ai/ha
  phytotoxicity rating SORHA: 0
[15]; 250 g ai/ha
  phytotoxicity rating SORHA: 0
[16]; 63 g ai/ha
  phytotoxicity rating CHEAL: 30
[16]; 250 g ai/ha
  phytotoxicity rating CHEAL: 80
[17]; 63 g ai/ha
  phytotoxicity rating DIGSA: 0
[17]; 250 g ai/ha
  phytotoxicity rating DIGSA: 0
[18]; 63 g ai/ha
  phytotoxicity rating AMARE: 80
[18]; 250 g ai/ha
  phytotoxicity rating AMARE: 100
[19]; 63 g ai/ha
  phytotoxicity rating CASOB: 20
[19]; 250 g ai/ha
  phytotoxicity rating CASOB: 100
[20]; 63 g ai/ha
  phytotoxicity rating ABUTH: 30
[20]; 250 g ai/ha
  phytotoxicity rating ABUTH: 100
[21]; 63 g ai/ha
  phytotoxicity rating CORN: 10
[21]; 250 g ai/ha
  phytotoxicity rating CORN: 10
[22]; 63 g ai/ha
  phytotoxicity rating RICE: 0
[22]; 250 g ai/ha
  phytotoxicity rating RICE: 20
